Legend:
human IGF-1R = molecular target: T1, human IGF-1R (Homo sapiens, UniProt P08069); assay: Insulin-like growth factor-1 receptor (IGF-1R)-kinase assay (DELFIA); assay type: biochemical; settings: inhibition of IGF-1R-kinase activity
T1 construct: human IGF-1R (amino acids 964-1370) is expressed as a fusion protein; made in house; host or cells: High Five insect cells (Invitrogen)
Procedure: Insulin-Like Growth Factor-1 Receptor (IGF-1R)-Kinase Assay
The kinase activity is measured by DELFIA® assay (dissociation-enhanced lanthanide fluorescence immunoassay, Perkin Elmer). The cytoplasmic kinase domain of human IGF-1R (amino acids 964-1370) is expressed as a fusion protein with a glutathione-S-transferase tag (IGF-1R-GST) in High Five™ Cells (Invitrogen). Enzyme activity is measured in the presence of substances and a control substance. Poly-glutamate-tyrosine peptide (pEY, Sigma Aldrich) and biotinylated pEY (bio-pEY) are used as reaction substrates.
10 μL of substance in 25% DMSO are mixed with 30 μL of IGF-1R-GST solution (67 mM HEPES pH 7.4, 15 μg/mL pEY, 1.7 μg/mL bio-pEY, 13.3 mM MgCl2, 3.3 mM dithiothreitol, 0.0033% Brij 35, 2 ng IGF-1R-GST) in 96-well plates. The reactions are started with 10 μL of a 750 μM ATP solution. After 40 min at RT the reactions are stopped with 50 μL of stop solution (250 mM EDTA, 20 mM HEPES pH 7.4). 90 μL from each reaction are transferred onto streptavidin-coated 96-well plates. After 120 min incubation at RT the plates are washed three times with 200 μL phosphate-buffered saline (PBS) per well. The plates are incubated for 60 min with 100 μL of europium-coupled antibody against phospho-tyrosine (diluted 1/2000 in Perkin Elmer DELFIA assay buffer) per well. The plates are washed three times with 200 μL per well of DELFIA washing buffer (Perkin Elmer). 100 μL DELFIA Enhancement Solution (Perkin Elmer) is added to each well, and the plates are incubated for 10 min. The fluorescence signal is measured with a Wallac Victor TRF Reader. IC50 values for the inhibition of the IGF-1R-kinase activity are calculated using the programme GraphPad (Version 3.0).

[1] = molecular target: standard panel of 30 kinases; assay: Kinase selectivity panel (SelectScreen Z'-LYTE), number of kinases inhibited; assay type: biochemical, human; settings: count out of 30 kinases
Description: Prior art document WO 2012/010704, which is completely silent about the pharmacokinetic profile of its compounds, discloses compounds with similar substituents in the 2-position, e.g. compounds I-166, I-167 and I-175, which share the previously undefined, desirable pharmacokinetic profile with compounds (I) according to the invention.
(§1) In order to compare the kinase selectivity of compounds (I) according to the invention with known prior art compounds the commercially provided SelectScreen® Kinase Profiling Service (Z′-LYTE®) was used (Life Technologies GmbH, Darmstadt, Germany) to investigate the ability of the compounds to inhibit a number of different, representatively selected human kinases. Further details regarding this service are available on the Life Technologies website at
(§2) The Z′-LYTE® biochemical assay employs a fluorescence-based, coupled-enzyme format and is based on the differential sensitivity of phosphorylated and non-phosphorylated peptides to proteolytic cleavage. The peptide substrate is labeled with two fluorophores—one at each end—that make up a FRET pair.
(§3) In the primary reaction, the kinase transfers the gamma-phosphate of ATP to a single tyrosine, serine or threonine residue in a synthetic FRET-peptide. In the secondary reaction, a site-specific protease recognizes and cleaves non-phosphorylated FRET-peptides. Phosphorylation of FRET-peptides suppresses cleavage by the Development Reagent. Cleavage disrupts FRET between the donor (i.e., coumarin) and acceptor (i.e., fluorescein) fluorophores on the FRET-peptide, whereas uncleaved, phosphorylated FRET-peptides maintain FRET. A ratiometric method, which calculates the ratio (the Emission Ratio) of donor emission to acceptor emission after excitation of the donor fluorophore at 400 nm, is used to quantitate reaction progress, as shown in the equation below.
(§4) The Test Compounds are screened at 1 μM.

AMPK A1/B1/G1 = molecular target: T2, AMPK A1/B1/G1 (Homo sapiens, UniProt Q13131); assay: Z'-LYTE kinase selectivity assay AMPK A1/B1/G1; assay type: biochemical; settings: read-out: AMPK A1B1G1 % inhibition
T2 construct: purchased Life Technologies PV 4672
T2 sequence (Q13131 whole entry): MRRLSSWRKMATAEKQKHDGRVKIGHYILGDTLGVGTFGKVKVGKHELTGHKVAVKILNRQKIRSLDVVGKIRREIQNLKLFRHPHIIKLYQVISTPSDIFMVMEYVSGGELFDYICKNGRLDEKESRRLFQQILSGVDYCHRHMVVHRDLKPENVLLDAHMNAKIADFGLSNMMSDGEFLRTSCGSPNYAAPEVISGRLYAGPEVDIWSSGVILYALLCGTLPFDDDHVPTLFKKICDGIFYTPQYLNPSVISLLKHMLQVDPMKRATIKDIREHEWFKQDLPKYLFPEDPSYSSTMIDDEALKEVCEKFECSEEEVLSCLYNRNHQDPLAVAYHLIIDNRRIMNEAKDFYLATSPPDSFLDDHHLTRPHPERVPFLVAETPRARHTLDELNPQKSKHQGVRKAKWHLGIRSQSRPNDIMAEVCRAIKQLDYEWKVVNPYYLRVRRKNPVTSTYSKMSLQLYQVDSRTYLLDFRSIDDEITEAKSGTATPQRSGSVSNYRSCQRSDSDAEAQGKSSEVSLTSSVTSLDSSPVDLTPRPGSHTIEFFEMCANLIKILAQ
T2 sequence (Q9Y478 whole entry partner): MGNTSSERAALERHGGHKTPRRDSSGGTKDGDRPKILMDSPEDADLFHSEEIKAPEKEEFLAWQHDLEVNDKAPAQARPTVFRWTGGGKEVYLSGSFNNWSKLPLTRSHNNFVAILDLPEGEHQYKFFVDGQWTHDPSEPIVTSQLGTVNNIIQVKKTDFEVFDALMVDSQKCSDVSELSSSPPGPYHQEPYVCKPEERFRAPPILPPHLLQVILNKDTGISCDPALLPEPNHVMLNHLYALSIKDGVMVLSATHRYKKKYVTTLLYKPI
T2 sequence (P54619 whole entry partner): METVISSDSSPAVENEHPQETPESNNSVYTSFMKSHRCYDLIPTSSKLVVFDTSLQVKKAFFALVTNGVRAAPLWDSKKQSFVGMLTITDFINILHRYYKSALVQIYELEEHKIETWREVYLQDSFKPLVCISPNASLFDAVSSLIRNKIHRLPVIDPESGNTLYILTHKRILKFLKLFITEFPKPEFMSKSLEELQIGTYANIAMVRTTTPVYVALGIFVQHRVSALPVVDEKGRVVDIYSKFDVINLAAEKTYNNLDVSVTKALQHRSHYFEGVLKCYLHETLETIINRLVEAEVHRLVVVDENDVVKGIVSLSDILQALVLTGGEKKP
Description: as §1, §2, §3, §4
The 2×AMPK A1/B1/G1 (# PV 4672)/Ser/Thr 23 (Z′-LYTE® Kinase Assay Kit—Ser/Thr 23 Peptide, # PV 4644) mixture is prepared in 50 mM HEPES pH 7.5, 0.01% BRIJ-35, 10 mM MgCl2, 1 mM EGTA. The final 10 μL Kinase Reaction consists of 0.43-2.86 ng AMPK A1/B1/G1 and 2 μM Ser/Thr 23 in 50 mM HEPES pH 7.5, 0.01% BRIJ-35, 10 mM MgCl2, 1 mM EGTA. After the 1 hour Kinase Reaction incubation, 5 μL of a 1:4096 dilution of Development Reagent A is added.

CDK2/cyclin A = molecular target: T3, CDK2/cyclin A (Homo sapiens, UniProt P24941); assay: Z'-LYTE kinase selectivity assay CDK2/cyclin A; assay type: biochemical; settings: read-out: CDK2/CYCLINA % inhibition
T3 construct: purchased Life Technologies PV 3267
Description: as §1, §2, §3, §4
The 2×CDK2/cyclin A (# PV 3267)/Ser/Thr 12 (Z′-LYTE® Kinase Assay Kit—Ser/Thr 12 Peptide, # PV 3673) mixture is prepared in 50 mM HEPES pH 7.5, 0.01% BRIJ-35, 10 mM MgCl2, 1 mM EGTA. The final 10 μL Kinase Reaction consists of 1.22-10.3 ng CDK2/cyclin A and 2 μM Ser/Thr 12 in 50 mM HEPES pH 7.5, 0.01% BRIJ-35, 10 mM MgCl2. 1 mM EGTA. After the 1 hour Kinase Reaction incubation, 5 μL of a 1:4096 dilution of Development Reagent A is added.

PRKACA (PKA) = molecular target: T4, PRKACA (PKA) (Homo sapiens, UniProt P17612); assay: Z'-LYTE kinase selectivity assay PRKACA; assay type: biochemical
T4 construct: purchased Life Technologies P 2912
Description: as §1, §2, §3, §4
The 2×PRKACA (PKA) (# P 2912)/Ser/Thr 01 (Z′-LYTE® Kinase Assay Kit—Ser/Thr 1 Peptide, # PV 3174) mixture is prepared in 50 mM HEPES pH 7.5, 0.01% BRIJ-35, 10 mM MgCl2, 1 mM EGTA. The final 10 μL Kinase Reaction consists of 0.03-0.15 ng PRKACA (PKA) and 2 μM Ser/Thr 01 in 50 mM HEPES pH 7.5, 0.01% BRIJ-35, 10 mM MgCl2, 1 mM EGTA. After the 1 hour Kinase Reaction incubation, 5 μL of a 1:4096 dilution of Development Reagent A is added.

T1 sequence (P08069 964-1367 limits assumed): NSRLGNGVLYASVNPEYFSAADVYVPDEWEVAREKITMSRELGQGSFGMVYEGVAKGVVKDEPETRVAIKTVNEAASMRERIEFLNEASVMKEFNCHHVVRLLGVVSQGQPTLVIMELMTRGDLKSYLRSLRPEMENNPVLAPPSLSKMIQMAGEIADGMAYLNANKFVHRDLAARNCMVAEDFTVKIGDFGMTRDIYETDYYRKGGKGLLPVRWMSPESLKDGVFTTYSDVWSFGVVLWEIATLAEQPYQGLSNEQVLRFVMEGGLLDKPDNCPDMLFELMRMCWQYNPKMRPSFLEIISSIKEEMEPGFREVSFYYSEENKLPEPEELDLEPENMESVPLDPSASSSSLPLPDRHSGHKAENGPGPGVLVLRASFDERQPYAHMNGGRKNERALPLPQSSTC

C[C@@H]1Cc2nn(C)c(-c3ccccc3)c2-c2nc(Nc3ccn(CCN4CCN(C)CC4)n3)ncc21 [Compound I-1] was tested, and the IC50 (human IGF-1R) was 0.9 nM, the “# kinases inhibited >50% @ 1 μM” value [1] was 6/30 and the inhibition at 1 µM (AMPK A1/B1/G1) was 36%. It also gave an inhibition at 1 µM (CDK2/cyclin A) of 72% and an inhibition at 1 µM (PRKACA (PKA)) of -5%.

For C[C@@H]1Cc2nn(C)c(-c3ccccc3)c2-c2nc(Nc3ccn(CCN4CCOCC4)n3)ncc21 [Compound I-2], the IC50 (human IGF-1R) was 1.3 nM, the “# kinases inhibited >50% @ 1 μM” value [1] was 7/30 and the inhibition at 1 µM (AMPK A1/B1/G1) was 34%. The inhibition at 1 µM (CDK2/cyclin A) was 56% and the inhibition at 1 µM (PRKACA (PKA)) was 22%.

C[C@@H]1Cc2nn(C)c(-c3ccccc3)c2-c2nc(Nc3ccn(CCN4CCN(CC(C)(C)O)CC4)n3)ncc21 [Compound I-3] was tested, and the IC50 (human IGF-1R) was 1.9 nM, the “# kinases inhibited >50% @ 1 μM” value [1] was 6/30 and the inhibition at 1 µM (AMPK A1/B1/G1) was 43%. It also gave an inhibition at 1 µM (CDK2/cyclin A) of 66% and an inhibition at 1 µM (PRKACA (PKA)) of 13%.

In the case of CC(O)CN1CCN(CCn2ccc(Nc3ncc4c(n3)-c3c(nn(C)c3-c3ccccc3)C[C@H]4C)n2)CC1 (some centres unmarked) [Compound I-7], the IC50 (human IGF-1R) is reported as 1 nM, the “# kinases inhibited >50% @ 1 μM” value [1] is reported as 6/30 and the inhibition at 1 µM (AMPK A1/B1/G1) is reported as 39%. It also gave an inhibition at 1 µM (CDK2/cyclin A) of 74% and an inhibition at 1 µM (PRKACA (PKA)) of 16%.

For C[C@@H]1Cc2nn(C)c(-c3ccccc3)c2-c2nc(Nc3ccn(CCN4CCN(CC(=O)OC5CCOCC5)CC4)n3)ncc21 [Compound I-8], the IC50 (human IGF-1R) was 2.8 nM, the “# kinases inhibited >50% @ 1 μM” value [1] was 3/30 and the inhibition at 1 µM (AMPK A1/B1/G1) was 29%. The inhibition at 1 µM (CDK2/cyclin A) was 49% and the inhibition at 1 µM (PRKACA (PKA)) was 16%.

C[C@@H]1Cc2nn(C)c(-c3ccccc3)c2-c2nc(Nc3ccn(CCN4CCN(CC5CCCO5)CC4)n3)ncc21 (some centres unmarked) [Compound I-9] was tested, and the IC50 (human IGF-1R) was 1.2 nM, the “# kinases inhibited >50% @ 1 μM” value [1] was 6/30 and the inhibition at 1 µM (AMPK A1/B1/G1) was 35%. The inhibition at 1 µM (CDK2/cyclin A) was 63% and the inhibition at 1 µM (PRKACA (PKA)) was 17%.

For COCCN1CCN(CCn2ccc(Nc3ncc4c(n3)-c3c(nn(C)c3-c3ccccc3)C[C@H]4C)n2)CC1 [Compound I-11], the IC50 (human IGF-1R) was 0.9 nM, the “# kinases inhibited >50% @ 1 μM” value [1] was 4/30 and the inhibition at 1 µM (AMPK A1/B1/G1) was 28%. For the same molecule, the inhibition at 1 µM (CDK2/cyclin A) was 53% and the inhibition at 1 µM (PRKACA (PKA)) was -3%.

From patent publication US10414769B2, “5,8-dimethyl-9-phenyl-5,8-dihydro-6H-pyrazolo[3,4-h]quinazolin-2-yl)-(1H-pyrazol-3-yl)-amines as IGF-1R/IR inhibitors” (Boehringer Ingelheim International GmbH, priority 2015, dated 2019)
